Data on seven compounds can be found in PubChem BioAssay (NCI).

Some test systems named below: UACC-62 melanoma; RXF 393 renal; T-47D breast; SF-539 CNS; UACC-257 melanoma; NCI/ADR-RES ovarian; SK-MEL-28 melanoma; OVCAR-5 ovarian; OVCAR-8 ovarian; NCI-H522 lung.
Experiment in all cases: NCI anticancer screen, dose series, 48 h

Each structure is given as a SMILES string.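 Cells were grown in 96-well plates and exposed to each compound for 48 hours at five concentrations; endpoints were interpolated linearly between bracketing concentrations, or set to the highest concentration if not reached. Here, GI50 denotes the concentration required for 50% inhibition of growth. TGI: concentration producing complete growth inhibition.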 Some results are limits rather than exact numbers.

In the case of `CCS(=O)(=O)N1CCN(c2ccc(Nc3ncc(C(N)=O)c(NC4CC4)n3)cc2)CC1`, the GI50 is 15700 nM with UACC-62 melanoma; 1.61 µM in the test on RXF 393 renal; 2.88 µM in the test on T-47D breast; 2.09 µM in the test on SF-539 CNS; 21.2 µM in the test on UACC-257 melanoma; 9.59 µM in the test with NCI/ADR-RES ovarian. The GI50 with SK-MEL-28 melanoma is 13.6 µM; in the test on OVCAR-5 ovarian it was 36.8 µM; in the test on OVCAR-8 ovarian, 5.62 µM; with NCI-H522 lung it was 14.1 µM. The TGI in the test on UACC-62 melanoma is 44 µM; in the test with RXF 393 renal it was 9.46 µM; with T-47D breast, 13.9 µM; with SF-539 CNS, 10.7 µM; in the test on UACC-257 melanoma it was more than 100 µM; with NCI/ADR-RES ovarian, more than 100 µM. Besides, the TGI in the test with SK-MEL-28 melanoma was 35.6 µM; in the test with OVCAR-5 ovarian, more than 100 µM; in the test on OVCAR-8 ovarian it was 88.1 µM; in the test with NCI-H522 lung, 44.1 µM.

For the compound `O=C(COc1cccc(/C=C2\Oc3ccc4ccccc4c3C2=O)c1)c1ccc([N+](=O)[O-])cc1`, the GI50 in the test with UACC-62 melanoma was 14100 nM; with RXF 393 renal, 10.6 µM; in the test on T-47D breast, 12.6 µM; in the test on SF-539 CNS it was 14 µM; with UACC-257 melanoma, more than 100 µM; with NCI/ADR-RES ovarian it was more than 100 µM. The GI50 was 48.4 µM in the test with SK-MEL-28 melanoma, 27.3 µM in the test on OVCAR-5 ovarian, 14.2 µM with OVCAR-8 ovarian and 11.2 µM in the test on NCI-H522 lung. Further, the TGI in the test on UACC-62 melanoma is 30.4 µM; in the test with RXF 393 renal it was 25.2 µM; with T-47D breast it was 38.3 µM; with SF-539 CNS, 32.1 µM; in the test on UACC-257 melanoma, more than 100 µM; with NCI/ADR-RES ovarian, more than 100 µM. Moreover, the TGI with SK-MEL-28 melanoma is more than 100 µM; in the test with OVCAR-5 ovarian, more than 100 µM; in the test with OVCAR-8 ovarian it was 37.2 µM; in the test on NCI-H522 lung, 29.3 µM.

For the compound `Cc1ccc(/C(=C/C=C(C#N)C#N)Sc2nc3ccccc3s2)cc1`, the GI50 is 2600 nM with UACC-62 melanoma; 3.78 µM in the test with RXF 393 renal; 5.2 µM in the test on T-47D breast; 4.77 µM in the test on SF-539 CNS; 12.1 µM in the test on UACC-257 melanoma; 4.24 µM in the test on NCI/ADR-RES ovarian. Besides, the GI50 in the test on SK-MEL-28 melanoma is 5.14 µM; with OVCAR-5 ovarian it was 24.1 µM; with OVCAR-8 ovarian, 4.35 µM; in the test on NCI-H522 lung it was 7.36 µM. Moreover, the TGI in the test with UACC-62 melanoma turned out to be 6.22 µM; with RXF 393 renal, 13.8 µM; in the test on T-47D breast it was 35.7 µM; in the test with SF-539 CNS, 20.8 µM; with UACC-257 melanoma, 27.3 µM; in the test with NCI/ADR-RES ovarian, 18.7 µM. For the same compound, the TGI with SK-MEL-28 melanoma was determined as 23.9 µM; in the test on OVCAR-5 ovarian it was 42.1 µM; in the test with OVCAR-8 ovarian, 65.6 µM; in the test with NCI-H522 lung, 32.9 µM.

With `CC1(C)CN(CCNc2nccc(-c3c(-c4cccc(O)c4)nc4sccn34)n2)S(=O)(=O)N1`, the GI50 in the test on UACC-62 melanoma was 116 nM; in the test with RXF 393 renal, 3 µM; in the test with T-47D breast, 11.2 µM; with SF-539 CNS, 30 µM; in the test on UACC-257 melanoma it was 2.12 µM; in the test with NCI/ADR-RES ovarian it was more than 33.2 µM. The GI50 with SK-MEL-28 melanoma was 0.268 µM; in the test on OVCAR-5 ovarian, more than 33.2 µM; in the test on OVCAR-8 ovarian it was 0.307 µM; in the test with NCI-H522 lung, 8.52 µM. For the same compound, the TGI with UACC-62 melanoma is 3.3 µM; in the test on RXF 393 renal it was 21.6 µM; with T-47D breast, more than 33.2 µM; in the test on SF-539 CNS it was more than 33.2 µM; with UACC-257 melanoma, more than 33.2 µM; in the test on NCI/ADR-RES ovarian, more than 33.2 µM. Moreover, the TGI in the test on SK-MEL-28 melanoma, in the test on OVCAR-5 ovarian, in the test on OVCAR-8 ovarian and in the test on NCI-H522 lung was more than 33.2 µM each time.

With `C/C(=N\NC(=S)N1CCN(c2ccccn2)CC1)c1cccc2cccnc12`, the TGI is 27.8 µM with UACC-62 melanoma; more than 100 µM in the test with RXF 393 renal; more than 87.6 µM in the test on T-47D breast; more than 31.6 µM in the test with SF-539 CNS; more than 100 µM with UACC-257 melanoma; 15.4 µM in the test with NCI/ADR-RES ovarian. In addition, the TGI is more than 100 µM in the test with SK-MEL-28 melanoma, more than 60.1 µM with OVCAR-5 ovarian, more than 100 µM with OVCAR-8 ovarian and 9.63 µM in the test with NCI-H522 lung.

As for `CC1(C)CC[C@]2(CO)CC[C@]3(C)C(=CC[C@@H]4[C@@]5(C)CCNCC(C)(C)[C@@H]5CC[C@]43C)[C@@H]2C1`, the GI50 in the test with UACC-62 melanoma was 2770 nM; in the test on RXF 393 renal it was 1.95 µM; in the test on T-47D breast, 2.42 µM; in the test with SF-539 CNS, 10.6 µM; in the test with UACC-257 melanoma, 2.33 µM; with NCI/ADR-RES ovarian, 9.4 µM. Further, the GI50 with SK-MEL-28 melanoma is 2.13 µM; in the test with OVCAR-5 ovarian it was 4.94 µM; with OVCAR-8 ovarian, 4.77 µM; in the test on NCI-H522 lung, 2.62 µM. Moreover, the TGI with UACC-62 melanoma amounted to 8.14 µM; in the test with RXF 393 renal, 4.83 µM; in the test on T-47D breast it was 11.2 µM; in the test on SF-539 CNS, 23.1 µM; with UACC-257 melanoma it was 5.79 µM; with NCI/ADR-RES ovarian, 24.9 µM. The TGI with SK-MEL-28 melanoma came to 5.39 µM; in the test on OVCAR-5 ovarian, 17.6 µM; in the test on OVCAR-8 ovarian, 24.8 µM; with NCI-H522 lung, 7.09 µM.

For the compound `COc1ccc2c(c1)C(=O)c1c-2n(CCCCl)c(=O)c2cc(N)ccc12`, the GI50 was more than 100000 nM in the test on UACC-62 melanoma; more than 57.3 µM in the test on RXF 393 renal; more than 100 µM with T-47D breast; more than 100 µM in the test on SF-539 CNS; more than 100 µM in the test with UACC-257 melanoma; more than 100 µM in the test on NCI/ADR-RES ovarian. Also, the GI50 in the test on SK-MEL-28 melanoma is more than 100 µM; with OVCAR-5 ovarian, more than 61.7 µM; in the test on OVCAR-8 ovarian, more than 100 µM; in the test with NCI-H522 lung, more than 84.4 µM. Besides, the TGI in the test with UACC-62 melanoma, in the test on RXF 393 renal, in the test on T-47D breast, in the test with SF-539 CNS, in the test with UACC-257 melanoma and in the test on NCI/ADR-RES ovarian was more than 100 µM in each case. In addition, the TGI in the test with SK-MEL-28 melanoma, with OVCAR-5 ovarian, with OVCAR-8 ovarian and with NCI-H522 lung was more than 100 µM throughout.
